Starred links: 1 amine or outer side, 2 acyl side, 3 side chain; linkers in the order of their positions; H or OH if unused. Non-standard residues stand in square brackets, D forms with d. Residues, ends and D or L forms follow the SMILES beside them. *: point of attachment. NHCH2CHPh2 = c1ccc(C(CN*)c2ccccc2)cc1; pNA = O=[N+]([O-])c1ccc(N*)cc1; NHPhenethyl = c1ccc(CCN*)cc1; Suc = O=C(CCC(=O)[*:2])[*:1]; Orn = NCCC[C@H](N)C(=O)O

By IC50 is commonly meant the concentration at which inhibition is half-maximal.

For this assay, the target named is Peptidyl-prolyl cis-trans isomerase A (cyclophilin A, hCyp-18) (Homo sapiens) (UniProt P62937). Kind of assay: 50% inhibitory concentration of competitive binding against hCyp-18 PPIase activity using uncoupled assay.
Chain of Peptidyl-prolyl cis-trans isomerase A (cyclophilin A, hCyp-18) (Homo sapiens) (P62937 whole entry, looked up): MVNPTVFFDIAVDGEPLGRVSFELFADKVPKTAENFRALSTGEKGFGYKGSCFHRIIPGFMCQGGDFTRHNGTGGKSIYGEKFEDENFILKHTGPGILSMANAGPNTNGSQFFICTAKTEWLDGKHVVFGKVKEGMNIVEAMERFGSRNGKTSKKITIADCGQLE
Compound `CC[C@H](C)[C@H](NC(=O)[C@@H]1CCCN1C(=O)CNC(=O)[C@H](C)NC(=O)[C@H](CCCN)NC(=O)[C@@H](NC(C)=O)C(C)C)C(=O)N[C@@H](C)C(N)=O` [1-(2-{2-[2-(2-Acetylamino-3-methyl-butyrylamino)-5-amino-pentanoylamino]-propionylamino}-acetyl)-pyrrolidine-2-carboxylic acid [1-(1-carbamoyl-ethylcarbamoyl)-2-methyl-butyl]-amide] (Ac-V[Orn]AGPIA-NH2) returned an IC50 greater than 10000 µM.

`C[C@H](NC(=O)CCC(=O)O)C(=O)N[C@@H](C)C(=O)N1CCC[C@H]1C(=O)N[C@@H](Cc1ccccc1)C(=O)Nc1ccc([N+](=O)[O-])cc1` [N-[1-(1-Methyl-2-{2-[1-(4-nitro-phenylcarbamoyl)-2-phenyl-ethylcarbamoyl]-pyrrolidin-1-yl}-2-oxo-ethylcarbamoyl)-ethyl]-succinamic acid] (Suc-AAPF-pNA): the IC50 was 850 µM.

On to `CC[C@@H]1/C=C(\C)C[C@H](C)C[C@H](OC)[C@H]2O[C@@](O)(C(=O)C(=O)N3CCCC[C@H]3C(=O)O[C@H](/C(C)=C/[C@@H]3CC[C@@H](O)[C@H](OC)C3)[C@H](C)[C@@H](O)CC1=O)[C@H](C)C[C@@H]2OC`, for which the IC50 was 8 µM.

In turn, `CC[C@H](C)[C@H](NC(=O)[C@@H]1CCCN1C(=O)CNC(=O)[C@H](C)NC(=O)[C@H](Cc1cnc[nH]1)NC(=O)[C@@H](NC(C)=O)C(C)C)C(=O)NCCc1ccccc1` (Ac-VHAGPI-NHPhenethyl) returned an IC50 of 325 µM.

The compound `CC[C@H](C)[C@H](NC(=O)[C@@H]1CCCN1C(=O)CNC(=O)[C@H](C)NC(=O)[C@H](Cc1cnc[nH]1)NC(=O)[C@@H](NC(C)=O)C(C)C)C(=O)NCC(c1ccccc1)c1ccccc1` (Ac-VHAGPI-NHCH2CHPh2) showed an IC50 of 365 µM.

For the origin of these results see BindingDB's records for doi:10.1021/jm9903139 (Departement D'Ingenierie Et D'Etudes Des Proteines, 2000).
